Results: article PMC5564600 (Oncotarget, 2017)
Where two headings read alike, the source gives them in different places.

Assays:
Experiment in all cases: biochemical
Type in all cases: binding
[1] = target: T1, panel of 442 kinases (Homo sapiens, UniProt Q08881); conditions: kinase ITK; for remaining activity at 1 µM: read-out: % of control at 1 µM
T1 construct: purchased Ambit Biosciences (scanMAXX KINOMEscan)
T1 sequence (Q08881 1-620): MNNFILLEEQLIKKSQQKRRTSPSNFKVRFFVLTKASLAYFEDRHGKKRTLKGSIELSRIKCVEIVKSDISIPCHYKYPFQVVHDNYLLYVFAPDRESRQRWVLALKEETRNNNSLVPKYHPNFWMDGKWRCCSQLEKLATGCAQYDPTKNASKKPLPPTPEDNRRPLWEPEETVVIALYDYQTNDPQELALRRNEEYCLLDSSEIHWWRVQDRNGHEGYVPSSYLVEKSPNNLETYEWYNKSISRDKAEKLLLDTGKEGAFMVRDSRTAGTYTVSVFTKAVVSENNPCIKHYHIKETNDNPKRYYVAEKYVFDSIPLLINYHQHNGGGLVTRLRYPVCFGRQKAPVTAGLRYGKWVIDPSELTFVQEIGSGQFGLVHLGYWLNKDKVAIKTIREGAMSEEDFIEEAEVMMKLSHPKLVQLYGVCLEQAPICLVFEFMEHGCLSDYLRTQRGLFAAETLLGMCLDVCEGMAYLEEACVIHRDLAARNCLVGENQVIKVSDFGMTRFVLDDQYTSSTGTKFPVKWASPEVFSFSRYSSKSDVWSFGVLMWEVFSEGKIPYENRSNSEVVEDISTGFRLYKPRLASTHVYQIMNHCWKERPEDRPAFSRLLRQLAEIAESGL

[2] = target: T2, panel of 442 kinases (Homo sapiens, UniProt Q14004); conditions: for remaining activity at 1 µM: read-out: % of control at 1 µM; for remaining activity at 10 µM: read-out: % of control at 10 µM
T2 construct: purchased Ambit Biosciences (scanMAXX KINOMEscan)

[3] = target: T3, panel of 442 kinases (Homo sapiens, UniProt O96013); conditions: kinase PAK4; for remaining activity at 1 µM: read-out: % of control at 1 µM
T3 construct: purchased Ambit Biosciences (scanMAXX KINOMEscan)

[4] = target: T4, panel of 442 kinases (Homo sapiens, UniProt P15735); conditions: kinase PHKG2; for remaining activity at 1 µM: read-out: % of control at 1 µM
T4 construct: purchased Ambit Biosciences (scanMAXX KINOMEscan)
T4 sequence (P15735 1-406): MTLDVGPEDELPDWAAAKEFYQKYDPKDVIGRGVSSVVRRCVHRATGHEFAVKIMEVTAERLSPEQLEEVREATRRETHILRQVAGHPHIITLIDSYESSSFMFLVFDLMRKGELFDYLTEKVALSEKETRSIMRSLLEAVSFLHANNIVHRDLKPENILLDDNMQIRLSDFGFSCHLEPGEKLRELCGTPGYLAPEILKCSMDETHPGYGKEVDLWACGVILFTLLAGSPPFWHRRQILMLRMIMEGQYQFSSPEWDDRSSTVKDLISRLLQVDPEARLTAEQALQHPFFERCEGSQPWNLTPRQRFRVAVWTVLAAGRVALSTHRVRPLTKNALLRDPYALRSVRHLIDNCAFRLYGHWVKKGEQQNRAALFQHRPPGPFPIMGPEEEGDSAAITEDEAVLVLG

[5] = target: T5, panel of 442 kinases (Homo sapiens, UniProt O15197); conditions: EPHB6; for remaining activity at 1 µM: read-out: % of control at 1 µM
T5 construct: purchased Ambit Biosciences (scanMAXX KINOMEscan)
T5 sequence (O15197 32-1021): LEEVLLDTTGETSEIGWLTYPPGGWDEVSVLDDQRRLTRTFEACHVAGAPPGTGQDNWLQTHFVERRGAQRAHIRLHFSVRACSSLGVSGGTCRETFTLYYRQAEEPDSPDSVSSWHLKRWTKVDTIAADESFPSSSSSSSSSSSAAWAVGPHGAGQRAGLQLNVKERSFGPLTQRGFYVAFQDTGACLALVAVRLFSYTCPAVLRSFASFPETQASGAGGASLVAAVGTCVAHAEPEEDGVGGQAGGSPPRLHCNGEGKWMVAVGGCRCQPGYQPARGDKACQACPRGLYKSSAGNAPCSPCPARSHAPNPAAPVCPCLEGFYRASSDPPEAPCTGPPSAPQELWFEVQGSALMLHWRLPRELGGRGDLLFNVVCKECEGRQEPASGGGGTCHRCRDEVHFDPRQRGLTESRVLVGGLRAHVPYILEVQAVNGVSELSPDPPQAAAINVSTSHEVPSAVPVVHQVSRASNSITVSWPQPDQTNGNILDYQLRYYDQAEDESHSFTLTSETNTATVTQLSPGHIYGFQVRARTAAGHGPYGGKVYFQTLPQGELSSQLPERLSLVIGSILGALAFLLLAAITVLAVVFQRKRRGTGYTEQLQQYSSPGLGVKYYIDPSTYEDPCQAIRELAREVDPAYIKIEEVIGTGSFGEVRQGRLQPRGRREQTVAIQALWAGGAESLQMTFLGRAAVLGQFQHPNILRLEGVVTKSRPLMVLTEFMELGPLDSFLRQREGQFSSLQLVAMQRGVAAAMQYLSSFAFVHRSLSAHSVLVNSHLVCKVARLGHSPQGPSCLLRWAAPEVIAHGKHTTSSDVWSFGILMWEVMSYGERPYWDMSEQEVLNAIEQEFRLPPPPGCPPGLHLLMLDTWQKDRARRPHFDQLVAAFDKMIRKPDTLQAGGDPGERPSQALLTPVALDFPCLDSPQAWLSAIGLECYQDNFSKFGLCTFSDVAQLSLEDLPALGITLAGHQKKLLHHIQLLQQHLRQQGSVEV

[6] = target: T6, panel of 442 kinases (Homo sapiens, UniProt Q8WU08); conditions: kinase YANK1; for remaining activity at 1 µM: read-out: YANK1 (% of control at 1 µM)
T6 construct: purchased Ambit Biosciences (scanMAXX KINOMEscan)

[7] = target: T7, panel of 442 kinases (Homo sapiens, UniProt P37023); conditions: ACVRL1; for remaining activity at 1 µM: read-out: % of control at 1 µM
T7 construct: purchased Ambit Biosciences (scanMAXX KINOMEscan)

[8] = 10 µM, read-out: % of control at 10 µM

T3 sequence (O96013 whole entry): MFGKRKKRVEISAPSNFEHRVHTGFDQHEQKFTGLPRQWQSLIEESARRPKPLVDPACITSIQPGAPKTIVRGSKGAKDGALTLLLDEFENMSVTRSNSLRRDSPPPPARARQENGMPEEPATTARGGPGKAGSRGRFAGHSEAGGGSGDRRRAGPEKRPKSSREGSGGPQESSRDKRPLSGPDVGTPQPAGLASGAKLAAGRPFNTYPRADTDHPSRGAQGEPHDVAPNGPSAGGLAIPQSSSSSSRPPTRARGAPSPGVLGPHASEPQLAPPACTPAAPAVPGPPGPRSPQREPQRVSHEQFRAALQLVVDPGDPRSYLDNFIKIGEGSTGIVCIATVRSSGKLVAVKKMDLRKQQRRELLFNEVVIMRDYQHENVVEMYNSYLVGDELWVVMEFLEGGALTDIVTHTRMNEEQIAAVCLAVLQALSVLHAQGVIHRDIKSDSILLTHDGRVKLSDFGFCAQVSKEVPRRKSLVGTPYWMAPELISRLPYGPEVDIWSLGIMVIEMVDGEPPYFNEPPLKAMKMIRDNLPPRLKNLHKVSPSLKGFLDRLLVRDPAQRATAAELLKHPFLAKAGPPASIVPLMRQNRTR
T2 sequence (Q14004 whole entry): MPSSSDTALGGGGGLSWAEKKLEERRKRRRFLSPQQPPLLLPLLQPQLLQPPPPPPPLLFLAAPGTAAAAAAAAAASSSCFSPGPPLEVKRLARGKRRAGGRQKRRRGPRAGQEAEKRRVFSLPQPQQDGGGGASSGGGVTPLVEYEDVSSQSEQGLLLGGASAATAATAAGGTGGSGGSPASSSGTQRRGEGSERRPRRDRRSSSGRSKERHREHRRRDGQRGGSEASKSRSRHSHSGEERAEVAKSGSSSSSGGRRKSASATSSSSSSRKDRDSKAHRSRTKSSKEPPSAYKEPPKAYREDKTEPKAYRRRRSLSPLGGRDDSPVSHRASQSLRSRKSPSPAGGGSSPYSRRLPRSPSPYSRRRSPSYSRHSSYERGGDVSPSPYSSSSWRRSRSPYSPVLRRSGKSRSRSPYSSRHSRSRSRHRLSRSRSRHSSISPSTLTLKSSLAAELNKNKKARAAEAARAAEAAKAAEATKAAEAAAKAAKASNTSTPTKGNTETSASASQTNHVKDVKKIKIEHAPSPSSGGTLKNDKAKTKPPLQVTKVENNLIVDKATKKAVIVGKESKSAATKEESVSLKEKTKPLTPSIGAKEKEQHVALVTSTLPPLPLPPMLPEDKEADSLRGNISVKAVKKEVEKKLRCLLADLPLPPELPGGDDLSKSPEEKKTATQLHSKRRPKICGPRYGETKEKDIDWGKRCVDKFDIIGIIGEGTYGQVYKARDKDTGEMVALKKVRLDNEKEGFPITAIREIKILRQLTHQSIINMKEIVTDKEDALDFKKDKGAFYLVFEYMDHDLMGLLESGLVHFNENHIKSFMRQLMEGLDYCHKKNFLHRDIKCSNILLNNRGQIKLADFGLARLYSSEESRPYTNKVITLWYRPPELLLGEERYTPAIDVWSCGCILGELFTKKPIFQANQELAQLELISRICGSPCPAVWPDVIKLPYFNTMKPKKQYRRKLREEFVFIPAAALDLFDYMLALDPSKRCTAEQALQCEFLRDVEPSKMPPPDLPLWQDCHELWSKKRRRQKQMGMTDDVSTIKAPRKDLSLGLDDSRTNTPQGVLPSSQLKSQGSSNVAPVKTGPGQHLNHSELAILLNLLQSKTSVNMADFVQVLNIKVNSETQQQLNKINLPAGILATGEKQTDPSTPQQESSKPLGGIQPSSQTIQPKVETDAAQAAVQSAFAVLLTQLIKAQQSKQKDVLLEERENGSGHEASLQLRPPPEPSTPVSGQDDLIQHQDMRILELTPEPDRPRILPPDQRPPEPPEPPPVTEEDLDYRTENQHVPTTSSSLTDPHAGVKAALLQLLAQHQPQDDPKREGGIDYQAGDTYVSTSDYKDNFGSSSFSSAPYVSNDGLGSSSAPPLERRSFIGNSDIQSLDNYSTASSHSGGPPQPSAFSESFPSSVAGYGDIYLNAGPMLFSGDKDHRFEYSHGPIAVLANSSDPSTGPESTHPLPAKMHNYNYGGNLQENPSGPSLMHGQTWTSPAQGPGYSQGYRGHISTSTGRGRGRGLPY
T7 sequence (P37023 22-503): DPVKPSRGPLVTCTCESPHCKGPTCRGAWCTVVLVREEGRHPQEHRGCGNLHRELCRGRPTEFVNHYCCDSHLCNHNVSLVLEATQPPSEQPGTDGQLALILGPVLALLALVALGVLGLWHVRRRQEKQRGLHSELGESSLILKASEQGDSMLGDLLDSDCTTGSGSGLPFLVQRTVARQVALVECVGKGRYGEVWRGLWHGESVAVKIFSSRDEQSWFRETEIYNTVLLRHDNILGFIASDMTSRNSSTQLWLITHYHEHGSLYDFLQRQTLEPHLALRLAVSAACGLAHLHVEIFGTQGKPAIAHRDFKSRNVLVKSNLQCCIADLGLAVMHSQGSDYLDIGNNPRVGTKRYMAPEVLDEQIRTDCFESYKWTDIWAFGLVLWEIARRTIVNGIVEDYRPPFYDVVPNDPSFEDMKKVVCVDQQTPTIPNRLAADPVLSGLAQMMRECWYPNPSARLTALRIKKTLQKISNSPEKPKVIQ
T6 sequence (Q8WU08 whole entry): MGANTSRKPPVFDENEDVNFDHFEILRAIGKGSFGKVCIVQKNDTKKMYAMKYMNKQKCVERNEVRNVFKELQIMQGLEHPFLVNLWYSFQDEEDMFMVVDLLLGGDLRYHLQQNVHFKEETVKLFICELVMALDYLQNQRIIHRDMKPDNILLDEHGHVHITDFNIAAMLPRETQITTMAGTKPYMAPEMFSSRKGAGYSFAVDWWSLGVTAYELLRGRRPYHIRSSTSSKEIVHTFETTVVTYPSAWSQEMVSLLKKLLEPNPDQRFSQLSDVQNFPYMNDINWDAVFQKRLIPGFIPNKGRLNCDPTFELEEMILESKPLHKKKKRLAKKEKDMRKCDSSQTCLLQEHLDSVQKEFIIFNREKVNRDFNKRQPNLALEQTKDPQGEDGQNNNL

Row | Compound | remaining activity at 1 µM [1] | remaining activity at 10 µM [1, 8] | remaining activity at 1 µM ([2]; CDC2L5, 1 µM) | remaining activity at 10 µM ([2]; CDC2L5) | remaining activity at 1 µM [3] | remaining activity at 10 µM [3, 8] | remaining activity at 1 µM [4] | remaining activity at 10 µM [4, 8] | remaining activity at 1 µM [5] | remaining activity at 10 µM [5, 8] | remaining activity at 1 µM [6] | remaining activity at 10 µM ([6]; 10 µM, read-out: YANK1 (% of control at 10 µM)) | remaining activity at 1 µM [7] | remaining activity at 10 µM [7, 8] | remaining activity at 1 µM [2]
1 | Nc1cc(C(F)(F)F)c(-c2cc(N3CCOCC3)nc(N3CCOCC3)n2)cn1 [Buparlisib] | 100% | 100% | 75% | 100% | 93% | 100% | 100% | 100% | 76% | 89% | 100% | 100% | 84% | 100% | –
2 | COc1ncc(-c2ccc3nccc(-c4ccnnc4)c3c2)cc1NS(=O)(=O)c1ccc(F)cc1F [Omipalisib] | 86% | – | 100% | – | 95% | – | 100% | – | 57% | – | 100% | – | 100% | – | –
3 | FC(F)c1nc2ccccc2n1-c1nc(N2CCOCC2)nc(N2CCOCC2)n1 [ZSTK474, 2-(difluoromethyl)-1-[4,6-di(4-morpholinyl)-1,3,5-triazin-2-yl]-1H-benzimidazole] | 97% | – | – | – | 96% | – | 100% | – | 100% | – | 100% | – | 100% | – | 100%
4 | CS(=O)(=O)N1CCN(Cc2cc3nc(-c4cccc5[nH]ncc45)nc(N4CCOCC4)c3s2)CC1 [Pictilisib, 2-(1H-indazol-4-yl)-6-(4-methanesulfonyl-piperazin-1-ylmethyl)-4-morpholin-4-yl-t hieno[3,2-d]pyrimidine] | – | – | 70% | 100% | – | – | – | – | – | – | – | – | – | – | –
5 | Cn1c(=O)n(-c2ccc(C(C)(C)C#N)cc2)c2c3cc(-c4cnc5ccccc5c4)ccc3ncc21 [Dactolisib, 2-methyl-2-[4-(3-methyl-2-oxo-8-quinolin-3-yl-2,3-dihydroimidazo[4,5-c]quinolin-1-yl)-phenyl] propionitrile] | 91% | – | 87% | – | 100% | – | 100% | – | 100% | – | 100% | – | 94% | – | –
